From patent US20060211740A1, “Novel compounds” (priority 2003, published 2006)
“And” between values parts separate entries of the source, which are not always exact repeats. Equal values may be shown once. Where a name gives a salt, the structure may show the parent alone.

What was measured:
[1] = molecular target: Asp-2 (Homo sapiens, UniProt P56817); test: Asp-2 Inhibitory Assay; format: biochemical; conditions: FAM-[SEVNLDAEFK]-TAMRA substrate, pH 4.5, 1 h at room temperature, fluorescence; read-out: inhibition (Asp2), Assay (I)
Method: (I) Asp-2 Inhibitory Assay
(§1) For each compound being assayed, in a 384 well plate, is added:—
(§2) a) 1 μl of a DMSO solution of the test compound (IC50 curve uses ten 1 in 2 serial dilutions from 500 μM).
This is prepared by diluting 2 ml of a 2 mM DMSO solution of the substrate into 400 ml of buffer (100 mM Sodium acetate pH=4.5, 1 l Milli-Q water, 0.06% Triton X-100 (0.5 ml/l), pH adjusted to 4.5 using glacial acetic acid). Aminomethyl fluorescein (FAM) and tetramethyl rhodamine (TAMRA) are fluorescent molecules which co-operate to emit fluorescence at 535 nm upon cleavage of the […] peptide.
c) 10 μl enzyme solution. This is prepared by diluting 16 ml of a 500 nM enzyme solution into 384 ml of buffer (prepared as above).
(§3) Blank wells (enzyme solution replaced by buffer) are included as controls on each plate. Wells are incubated for 1 h at room temperature and fluorescence read using a Tecan Ultra Fluorimeter/Spectrophotometer (485 nm excitation, 535 nm emission).

[2] = molecular target: Cathepsin D (Homo sapiens, UniProt P07339); test: Cathepsin D Inhibitory Assay; format: biochemical; conditions: FAM-[SEVNLDAEFK]-TAMRA substrate, pH 4.5, 1 h at room temperature, fluorescence; read-out: inhibition (CatD), Assay (II)
Method: (II) Cathepsin D Inhibitory Assay
as §1, §2
This is prepared by diluting 2 ml of a 2 mM DMSO solution of the substrate into 400 ml of buffer (100 mM Sodium acetate pH=4.5, 1 l Milli-Q water, 0.06% Triton X-100 (0.5 ml/l), pH adjusted to 4.5 using glacial acetic add).
c) 10 μl enzyme solution. This is prepared by diluting 1.6 ml of a 200 unit/ml (in 10 mM HCl) enzyme solution into 398.4 ml of buffer (prepared as above).
as §3

Chain of Asp-2 (P56817 46-501): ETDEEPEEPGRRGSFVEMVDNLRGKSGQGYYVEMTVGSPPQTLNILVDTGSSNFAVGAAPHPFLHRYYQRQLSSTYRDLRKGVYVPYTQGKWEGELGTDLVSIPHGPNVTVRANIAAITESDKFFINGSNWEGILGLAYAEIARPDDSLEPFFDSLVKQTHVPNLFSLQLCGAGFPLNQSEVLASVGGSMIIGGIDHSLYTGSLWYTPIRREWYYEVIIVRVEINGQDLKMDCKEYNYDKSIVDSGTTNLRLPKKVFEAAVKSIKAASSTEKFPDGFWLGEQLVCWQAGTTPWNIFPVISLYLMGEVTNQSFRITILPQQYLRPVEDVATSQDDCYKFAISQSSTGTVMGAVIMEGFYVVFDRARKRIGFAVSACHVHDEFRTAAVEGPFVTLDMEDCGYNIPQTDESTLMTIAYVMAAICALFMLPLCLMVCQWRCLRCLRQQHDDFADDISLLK
Chain of Cathepsin D (P07339 65-412, species assumed): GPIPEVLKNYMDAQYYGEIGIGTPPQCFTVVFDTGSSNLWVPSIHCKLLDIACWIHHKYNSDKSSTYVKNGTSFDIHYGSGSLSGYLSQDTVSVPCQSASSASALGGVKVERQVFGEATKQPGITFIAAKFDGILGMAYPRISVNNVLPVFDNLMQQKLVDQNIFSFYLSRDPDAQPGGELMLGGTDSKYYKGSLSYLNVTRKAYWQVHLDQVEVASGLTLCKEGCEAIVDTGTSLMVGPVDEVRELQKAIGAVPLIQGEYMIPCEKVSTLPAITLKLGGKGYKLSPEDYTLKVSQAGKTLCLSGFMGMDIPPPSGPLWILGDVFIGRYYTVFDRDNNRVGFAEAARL

SMILES	IC50 [1]	IC50 [2]
CS(=O)(=O)N(c1cccc(C#N)c1)c1cccc(C(=O)N[C@@H](Cc2ccccc2)[C@H](O)CNCc2cccc(C(F)(F)F)c2)c1 [Example E17, N-[(1S,2R)-1-Benzyl-2-hydroxy-3-(3-trifluoromethyl-benzylamino)-propyl]-[(3-cyano-phenyl)-methanesulfonyl-amino]-benzamide]	1 to 100 nM	200 to 2500 nM
C[C@H](NC[C@@H](O)[C@H](Cc1ccccc1)NC(=O)c1cc(N2CCCC2=O)cc(N(c2ccccc2)S(C)(=O)=O)c1)C(=O)NC1CCCCC1 [Example E41]	1 to 100 nM and 1 to 10 nM	200 to 2500 nM and 400 to 1000 nM
C#Cc1cc(C(=O)N[C@@H](Cc2ccccc2)[C@H](O)CNCc2cccc(C(F)(F)F)c2)cc(N(c2ccccc2)S(C)(=O)=O)c1 [Example E46, N-[(1S,2R)-1-Benzyl-2-hydroxy-3-(3-trifluoromethyl-benzylamino)-propyl]-ethynyl-(methanesulfonyl-phenyl-amino)-benzamide]	1 to 100 nM	200 to 2500 nM
CS(=O)(=O)N(c1ccccc1)c1cc(C(=O)N[C@@H](Cc2ccccc2)[C@H](O)CNCc2cccc(OC(F)(F)F)c2)cc(N2CCCC2=O)c1 [Example E55, formate salt]	1 to 100 nM and 1 to 10 nM	200 to 2500 nM and 400 to 1000 nM
CS(=O)(=O)N(c1ccccc1)c1cccc(C(=O)N[C@@H](Cc2ccccc2)[C@H](O)CNCc2cccc(C(F)(F)F)c2)c1F [Example E56, formate salt]	1 to 100 nM	200 to 2500 nM
CCSc1cc(C(=O)N[C@@H](Cc2ccccc2)[C@H](O)CNCc2cccc(C(F)(F)F)c2)cc(N(c2ccccc2)S(C)(=O)=O)c1 [Example E60]	1 to 100 nM and 1 to 10 nM	200 to 2500 nM and 400 to 1000 nM
CS(=O)(=O)N(c1cccc(C#N)c1)c1cc(C(=O)N[C@@H](Cc2ccccc2)[C@H](O)CNCc2cccc(C(F)(F)F)c2)cc(N2CCCC2=O)c1 [Example E77, formate salt]	1 to 100 nM and 1 to 10 nM	200 to 2500 nM and 400 to 1000 nM
C=C(C)c1cc(C(=O)N[C@@H](Cc2ccccc2)[C@H](O)CNCc2cccc(C(F)(F)F)c2)cc(N(c2ccccc2)S(C)(=O)=O)c1 [Example E83, N-[(1S,2R)-Benzyl-hydroxy-3-(3-trifluoromethyl-benzylamino)-propyl]-3-isopropenyl-5-(methanesulfonyl-phenyl-amino)-benzamide]	1 to 100 nM	200 to 2500 nM
